Assays:
in vitro [1] = settings: human, liver microsomes
in vitro [2] = settings: mouse, liver microsomes

Structure (SMILES)	microsomal CLint at 0.5 h, 1 µM (in vitro [1])	microsomal CLint at 0.5 h, 1 µM (in vitro [2])
COc1ccc(CC(=O)NC(=N)N[C@H](CC2CCCCC2)C(=O)Nc2cc(S(=O)(=O)NC3CCCCC3)ccc2C)cc1OC	326 µL/min/mg	232 µL/min/mg
COc1ccc(CC(=O)NC(=N)N[C@H](Cc2ccccc2F)C(=O)Nc2cc(S(N)(=O)=O)ccc2C)cc1OC	171 µL/min/mg	149 µL/min/mg
COc1ccc(CC(=O)NC(=N)N[C@H](CC2CCCCC2)C(=O)Nc2cc(S(=O)(=O)NC3CC3)ccc2C)cc1OC	179 µL/min/mg	354 µL/min/mg
CNS(=O)(=O)c1ccc(C)c(NC(=O)[C@H](NC(=N)NC(=O)Cc2ccc(OC)c(OC)c2)c2ccccc2)c1	281 µL/min/mg	270 µL/min/mg
COc1ccc(CC(=O)NC(=N)N[C@H](Cc2ccccc2)C(=O)Nc2cc(S(N)(=O)=O)ccc2C)cc1OC	191 µL/min/mg	193 µL/min/mg
COc1ccc(CC(=O)NC(=N)N[C@H](CC2CCCCC2)C(=O)Nc2cc(S(=O)(=O)N3CCOCC3)ccc2C)cc1OC	212 µL/min/mg	237 µL/min/mg
COc1ccc(CC(=O)NC(=N)N[C@H](Cc2cccs2)C(=O)Nc2cc(S(N)(=O)=O)ccc2C)cc1OC	264 µL/min/mg	260 µL/min/mg
COc1ccc(CC(=O)NC(=N)N[C@@H](C(=O)Nc2cc(S(N)(=O)=O)ccc2C)C2CCCCC2)cc1OC	225 µL/min/mg	210 µL/min/mg
COc1ccc(CC(=O)NC(=N)N[C@H](Cn2cc(-c3ccccc3)nn2)C(=O)Nc2cc(S(N)(=O)=O)ccc2C)cc1OC	340 µL/min/mg	367 µL/min/mg
COc1ccc(CC(=O)NC(=N)NCC(=O)Nc2cc(S(N)(=O)=O)ccc2C)cc1OC	18 µL/min/mg	20 µL/min/mg
Cc1ccc(S(=O)(=O)N(C)C)cc1NC(=O)[C@@H](CC1CCCCC1)NC(=N)NC(=O)Cc1cccc(C(F)(F)F)c1	238 µL/min/mg	270 µL/min/mg
COc1ccc(CC(=O)NC(=N)N[C@H](Cc2cc3ccccc3s2)C(=O)Nc2cc(S(N)(=O)=O)ccc2C)cc1OC	251 µL/min/mg	239 µL/min/mg
Cc1ccc(S(=O)(=O)N(C)C)cc1NC(=O)[C@@H](CC1CCCCC1)NC(=N)NC(=O)C1CCCc2ccccc21 (stereo partly drawn)	237 µL/min/mg	259 µL/min/mg
COc1ccc(CC(=O)NC(=N)N[C@H](CC2CCCCC2)C(=O)Nc2cc(S(=O)(=O)N(C)C)ccc2C)cc1OC	204 µL/min/mg	226 µL/min/mg
CNS(=O)(=O)c1ccc(C)c(NC(=O)[C@@H](CC2CCCCC2)NC(=N)NC(=O)Cc2ccc(OC)c(Cl)c2)c1	295 µL/min/mg	273 µL/min/mg
CNS(=O)(=O)c1ccc(C)c(NC(=O)[C@H](NC(=N)NC(=O)Cc2ccc(OC)c(OC)c2)C(C)C)c1	179 µL/min/mg	104 µL/min/mg
COc1ccc(CCC(=O)NC(=N)N[C@H](CC2CCCCC2)C(=O)Nc2cc(S(=O)(=O)N(C)C)ccc2C)cc1OC	169 µL/min/mg	234 µL/min/mg
COc1ccc(CC(=O)NC(=N)N[C@H](CSC)C(=O)Nc2cc(S(N)(=O)=O)ccc2C)cc1OC	187 µL/min/mg	197 µL/min/mg
CC[C@@H](NC(=N)NC(=O)Cc1ccc(OC)c(OC)c1)C(=O)Nc1cc(S(N)(=O)=O)ccc1C	55.1 µL/min/mg	118 µL/min/mg
COc1ccc(CC(=O)NC(=N)N[C@H](CC2CCCCC2)C(=O)Nc2cc(S(=O)(=O)N(C(C)C)C(C)C)ccc2C)cc1OC	259 µL/min/mg	259 µL/min/mg
CNS(=O)(=O)c1ccc(C)c(NC(=O)[C@H](NC(=N)NC(=O)Cc2ccc(OC)c(OC)c2)C2CCCCC2)c1	211 µL/min/mg	173 µL/min/mg
CNS(=O)(=O)c1ccc(C)c(NC(=O)[C@@H](CC2CCCCC2)NC(=N)NC(=O)Cc2ccc(OC)c(OC)c2)c1	177 µL/min/mg	177 µL/min/mg
COc1ccc(CC(=O)NC(=N)N[C@H](CC2CC2)C(=O)Nc2cc(S(N)(=O)=O)ccc2C)cc1OC	108 µL/min/mg	229 µL/min/mg
CCC[C@@H](NC(=N)NC(=O)Cc1ccc(OC)c(OC)c1)C(=O)Nc1cc(S(N)(=O)=O)ccc1C	89.3 µL/min/mg	266 µL/min/mg
COc1ccc(CC(=O)NC(=N)N[C@H](CC2CCCCC2)C(=O)Nc2cc(N(S(C)(=O)=O)S(C)(=O)=O)ccc2C)cc1OC	186 µL/min/mg	165 µL/min/mg

Structure (SMILES)	microsomal CLint at 0.5 h, 1 µM (in vitro [1])	microsomal CLint at 0.5 h, 1 µM (in vitro [2])
COCC[C@@H](NC(=N)NC(=O)Cc1ccc(OC)c(OC)c1)C(=O)Nc1cc(S(N)(=O)=O)ccc1C	43.1 µL/min/mg	57.3 µL/min/mg
COc1ccc(CC(=O)NC(=N)N[C@H](CC2CCCCC2)C(=O)Nc2cc(S(=O)(=O)NC(C)C)ccc2C)cc1OC	277 µL/min/mg	240 µL/min/mg
COc1ccc(CC(=O)NC(=N)N[C@H](CC(C)C)C(=O)Nc2cc(S(N)(=O)=O)ccc2C)cc1OC	160 µL/min/mg	102 µL/min/mg
CNS(=O)(=O)c1ccc(C)c(NC(=O)[C@@H](CC2CCCCC2)NC(=N)NC(=O)Cc2ccc(F)c(OC)c2)c1	287 µL/min/mg	326 µL/min/mg
Cc1ccc(S(=O)(=O)N(C)C)cc1NC(=O)[C@@H](CC1CCCCC1)NC(=N)NC(=O)Cc1ccc(Cl)c(Cl)c1	248 µL/min/mg	238 µL/min/mg
Cc1ccc(S(=O)(=O)N(C)C)cc1NC(=O)[C@@H](CC1CCCCC1)NC(=N)NC(=O)Cc1ccc2ccccc2c1	169 µL/min/mg	200 µL/min/mg
COc1ccc(CC(=O)NC(=N)N[C@H](C(=O)Nc2cc(S(N)(=O)=O)ccc2C)C2CCCC2)cc1OC	174 µL/min/mg	179 µL/min/mg
COc1ccc(CC(=O)NC(=N)N[C@@H](C(=O)Nc2cc(S(N)(=O)=O)ccc2C)C2=CCC=CC2)cc1OC	138 µL/min/mg	178 µL/min/mg
COc1ccc(CC(=O)NC(=N)N[C@H](CO)C(=O)Nc2cc(S(N)(=O)=O)ccc2C)cc1OC	22.5 µL/min/mg	15.5 µL/min/mg
Cc1ccc(S(=O)(=O)N(C)C)cc1NC(=O)[C@@H](CC1CCCCC1)NC(=N)NC(=O)Cc1cccc(C#N)c1	287 µL/min/mg	250 µL/min/mg
CNS(=O)(=O)c1ccc(C)c(NC(=O)[C@@H](CC2CCCCC2)NC(=N)NC(=O)Cc2cc(Cl)cc(OC)c2)c1	212 µL/min/mg	212 µL/min/mg
COc1ccc(CC(=O)NC(=N)N[C@@H](C(=O)Nc2cc(S(N)(=O)=O)ccc2C)C(C)(C)C)cc1OC	108 µL/min/mg	211 µL/min/mg
CCCC[C@@H](NC(=N)NC(=O)Cc1ccc(OC)c(OC)c1)C(=O)Nc1cc(S(N)(=O)=O)ccc1C	215 µL/min/mg	231 µL/min/mg
COc1ccc(CC(=O)NC(=N)N[C@H](C)C(=O)Nc2cc(S(N)(=O)=O)ccc2C)cc1OC	27.8 µL/min/mg	50.6 µL/min/mg
COc1ccc(CC(=O)NC(=N)N[C@H](CC2CCCCC2)C(=O)Nc2cc(S(=O)(=O)N(C)C)ccc2C)cc1F	241 µL/min/mg	241 µL/min/mg
NC(=O)N1c2ccccc2C=Cc2ccccc21 [CARBAMAZEPINE]	6 µL/min/mg	7 µL/min/mg
CNS(=O)(=O)c1ccc(C)c(NC(=O)[C@@H](CC2CCCCC2)NC(=N)NC(=O)Cc2ccc(S(C)(=O)=O)cc2)c1	241 µL/min/mg	208 µL/min/mg
COc1ccc(CC(=O)NC(=N)N[C@H](CC2CCCCC2)C(=O)Nc2cc(S(N)(=O)=O)ccc2C)cc1OC	171 µL/min/mg	161 µL/min/mg
CNS(=O)(=O)c1ccc(C)c(NC(=O)[C@@H](CC2CCCCC2)NC(=N)NC(=O)Cc2ccc(Cl)c(Cl)c2)c1	336 µL/min/mg	176 µL/min/mg
CNS(=O)(=O)c1ccc(C)c(NC(=O)[C@@H](CC2CCCCC2)NC(=N)NC(=O)Cc2cc(Cl)cc(C(F)(F)F)c2)c1	239 µL/min/mg	220 µL/min/mg
CNS(=O)(=O)c1ccc(C)c(NC(=O)[C@@H](CC2CCCCC2)NC(=N)NC(=O)Cc2ccc(OC)c(C(F)(F)F)c2)c1	188 µL/min/mg	215 µL/min/mg
COc1ccc(CC(=O)NC(=N)N[C@@H](C(=O)Nc2cc(S(N)(=O)=O)ccc2C)C(C)C)cc1OC	64.3 µL/min/mg	174 µL/min/mg
CNS(=O)(=O)c1ccc(C)c(NC(=O)[C@@H](Cc2ccccc2)NC(=N)NC(=O)Cc2ccc(OC)c(OC)c2)c1	131 µL/min/mg	149 µL/min/mg
COc1ccc(CC(=O)NC(=N)N[C@@H](C(=O)Nc2cc(S(N)(=O)=O)ccc2C)C2CC2)cc1OC	40 µL/min/mg	100 µL/min/mg

— ChEMBL document CHEMBL4699662, “Identification and structure-activity relationship studies of small molecule inhibitors of the human cathepsin D” (Bioorg Med Chem, 2021)
